One substance from US20220145264A1, “CULTURE MEDIUM FOR MAMMALIAN EXPANDED POTENTIAL STEM CELLS, COMPOSITION, AND METHODS THEREOF” (THE UNIVERSITY OF HONG KONG, priority 2019, published 2022) can be followed below.

The subject of experiment [1] is NANOS3-Tdtomato reporter EPSCs. Nature of the experiment: Differentiation to PGCLCs from NANOS3-Tdtomato reporter EPSCs (FACS). It is filed as cell-based, human. Conditions: 5.0 ng/ml supplemented in hEPSCM. How it is done:
For human PGCLCs, the PGC differentiation potential of two hEPSC lines are tested with the sequential induction method. Human pre-mesoderm (pre-ME) was first induced in pre-ME media (Advanced RPMI 1640 Medium, 1% B27 supplement, 1×NEAA and 1× glutamine penicillin-streptomycin supplemented with 100 ng/ml Activin A (SCI), 3 μM CHIR99021 and 10 μM of ROCKi Y-27632) for 12 hours. Pre-ME were trypsinized into single cells and seeded into Corning Costar Ultra-Low attachment multi well 96-well plates (Corning, Cat. No. 7007) 4,000-5,000 cells per well in the […] PGCLC medium which was used for porcine PGCLC induction. To improve the cell aggregation, in all PGCLC induction experiments, 0.25% (v/v) poly-vinyl alcohol (Sigma, Cat. No. 341584) are added in the basal medium.

In experiment [2] the test system is H1-EPSCs. Nature of the experiment: Requirement of individual culture components for hEPSCs (RT-qPCR, AP+ colony formation). It is filed as cell-based, human. Conditions: in the presence of 5.0 ng/ml. How it is done: Porcine and human EPSC cultures were routinely maintained on STO feeders. STO feeder plates were prepared 3-4 days before passaging by thawing and plating the mitomycin C inactivated STO cells on 0.1% gelatinised plates at the density of ˜1.1×10^4 cells/cm^2. Porcine/human EPSC cells were maintained on STO feeder layers and enzymatically passaged every 3-5 days by a brief PBS wash followed by treatment for 3-5 minutes with 0.25% trypsin/EDTA (Gibco, Cat. No. 25500-054). The cells were dissociated and centrifuged (300 g×5 minutes) in M10 medium. M10: knockout DMEM (Gibco, Cat. No. 10829-018), 10% FBS (Gibco, Cat. No. 10270), 1× Glutamine Penicillin-Streptomycin (Thermo Fisher Scientific, Cat. No. 11140050) and 1×NEAA (Thermo Fisher Scientific, Cat. No. 10378-016). After removing supernatant, the porcine/human EPSCs were re-suspended and seeded in pEPSCM/hEPSCM supplemented with 5 μM ROCK inhibitor Y-27632 (Tocris, Cat. No. 1254). 5% FBS (Gibco, Cat. No. 10270) and 10% KnockOut Serum Replacement (KSR) (Gibco, Cat. No. 10828028) were added in pEPSCM and hEPSCM respectively to improve cells survive. 12-24 hours later, medium was switched to pEPSCM/hEPSCM only. Both pEPSCM and hEPSCM are N2B27 based media. N2B27 basal media (500 ml) was prepared by inclusion of the following components: 482.5 ml DMEM/F-12 (Gibco, Cat. No. 21331-020), 2.5 ml N2 supplement (Thermo Fisher Scientific, Cat. No. 17502048), 5 ml B27 supplement (Thermo Fisher Scientific, Cat. No. 17504044), 5 ml 1× Glutamine Penicillin-Streptomycin (Thermo Fisher Scientific, Cat. No. 11140-050), and 5 ml 1×NEAA (Thermo Fisher Scientific, Cat. No. 10378-016), 0.1 mM 2-mercaptoethanol (Sigma, Cat. No. M6250). pEPSCM (500 ml) was generated by adding the following small molecules and cytokines into 500 ml N2B27 basal media: 0.2 μM CHIR99021(GSK3i, TOCRIS, Cat. No. 4423), 1 μM WH-4-023 (SRC inhibitor, TOCRIS, Cat. No. 5413), 2.5 μM XAV939 (Sigma, Cat. No. X3004) or 2.5 μM IWR-1 (TOCRIS, Cat. No. 3532), […] Vitamin C (Sigma, Cat. No. 49752-100G), 10 ng/ml LIF (Stem Cell Institute, University of Cambridge. SCI) and 20 ng/ml ACTIVIN (SCI). hEPSCM (500 ml) was generated by adding the following components into 500 ml N2B27 basal media: 1.0 μM CHIR99021(GSK3 inhibitor, TOCRIS, Cat. No. 4423), 0.5 μM A-419259 (SRC inhibitor, TOCRIS, Cat. No. 3914), 2.5 μM XAV939 (Sigma, Cat. No. X3004), […] Vitamin C (Sigma, Cat. No. 49752-100G), 10 ng/ml LIF (SCI). Although both targeting SRC family kinases (SFKs), WH-4-023 and A419259 were preferred for porcine and human EPSCs, respectively. […] The concentrations of CHIR99021 for porcine and human EPSC cultures are 0.2 μM and 1.0 μM, respectively. […] 0.25 μM SB 590885 (BRAF inhibitor, R&D, Cat. No. 2650) and 2.0 μM SP600125 ([…], TOCRIS, Cat. No. 1496) were included to improve porcine and human EPSC cultures, but they were not essential for the routine maintenance of porcine and human EPSCs. All cell cultures in this paper were performed under conditions of 37° C. and 5% CO2 unless stated otherwise.
Total RNA was isolated using an RNeasy Mini Kit (Qiagen, Cat. No. 74106) for cultured cells or RNeasy Micro Kit (Qiagen, Cat. No. 74034) for sorted NANOS3-mCherry^+ cells. RNA was subsequently quantified and treated with gDNA WipeOut to remove genomic DNA. Complementary DNA (cDNA) was prepared using a QuantiTect Reverse Transcription Kit (Qiagen, Cat. No. 205311). RT-qPCR primers or TaqMan Gene Expression Assays (Life Technologies) are listed in Supplementary Table 10 and 11. ABsolute Blue qPCR ROX Mix (ABgene, Cat. No. AB4138B) were used for probe based qPCR assays and SYBR Green ROX qPCR Mastermix (Qiagen, Cat. No. 330523) were used for primer based qPCR assays. All qPCR reactions were performed on ABI 7900 HT Sequence Detection System (Life Technologies). Information on all primers and probes used for qPCR analysis are provided in Supplementary Table 10 and 11. Gene expression was determined relative to GAPDH using the […]. […]
(In general: In qPCR the cycle at which signal appears reflects the starting amount.)

As to “ACTIVIN A: Human Recombinant ACTIVIN A cytokine”, the “NANOS3-tdTomato+ PGCLCs generated” value in experiment [1] is “more and substantially increased”. Further, the “cell survival at passaging” value in experiment [2] is given as “substantially improved”.
